{"source": "patent US20230116972A1", "about": "“CD38 MODULATORS AND METHODS OF USE THEREOF” (Cytokinetics, Inc., priority 2021, published 2023)", "assay_in_all_cases": "time dependent inhibition of CYP450 in pooled human microsomes", "assay_type_in_all_cases": "in vitro ADME", "key": {"CYP3A4": {"target": "T1, CYP3A4 (Homo sapiens, UniProt P08684)", "T1 construct": "from tissue; host or cells: human liver microsomes (pooled in the time-dependent assay)", "T1 sequence (P08684 whole entry)": "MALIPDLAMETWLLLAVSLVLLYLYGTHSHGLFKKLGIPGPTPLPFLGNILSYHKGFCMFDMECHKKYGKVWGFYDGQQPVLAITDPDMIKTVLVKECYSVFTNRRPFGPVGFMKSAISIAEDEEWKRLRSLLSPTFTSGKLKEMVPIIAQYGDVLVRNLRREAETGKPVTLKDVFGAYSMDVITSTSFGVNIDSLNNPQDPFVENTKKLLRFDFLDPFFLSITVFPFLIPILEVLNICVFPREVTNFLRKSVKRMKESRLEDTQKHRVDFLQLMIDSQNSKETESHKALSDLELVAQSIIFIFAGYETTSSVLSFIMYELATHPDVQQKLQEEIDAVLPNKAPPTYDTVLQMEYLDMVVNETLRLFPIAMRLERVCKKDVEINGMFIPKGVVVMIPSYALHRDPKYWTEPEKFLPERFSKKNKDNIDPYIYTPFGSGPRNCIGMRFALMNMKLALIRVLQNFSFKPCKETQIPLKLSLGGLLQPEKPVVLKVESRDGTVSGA", "method": "(§1) Time dependent inhibition: An assessment of the time-dependent Inhibitory potential of test compounds against the principal human cytochrome P450 isozymes was carried out using standard methods (Grimm et al, “The Conduct of in Vitro Studies to Address Time-Dependent Inhibition of Drug-Metabolizing Enzymes: A Perspective of the Pharmaceutical Research and Manufacturers of America”, Drug Metabolism and Disposition, 37 (7): 1355, 2009). […] Each compound was pre-incubated at 37° C. plus and minus NADPH for 30 min, and with 0 min pre-incubation for assessment of potential time dependent inhibition. LC-MS/MS was used to quantify metabolite formation. […] Note that, in Tables 8 and 9, the “Compound No” corresponds to the compound numbers in Table 1."}, "CYP1A2": {"target": "T2, CYP1A2 (Homo sapiens, UniProt P05177)", "T2 construct": "from tissue; host or cells: human liver microsomes (pooled in the time-dependent assay)", "T2 sequence (P05177 1-516)": "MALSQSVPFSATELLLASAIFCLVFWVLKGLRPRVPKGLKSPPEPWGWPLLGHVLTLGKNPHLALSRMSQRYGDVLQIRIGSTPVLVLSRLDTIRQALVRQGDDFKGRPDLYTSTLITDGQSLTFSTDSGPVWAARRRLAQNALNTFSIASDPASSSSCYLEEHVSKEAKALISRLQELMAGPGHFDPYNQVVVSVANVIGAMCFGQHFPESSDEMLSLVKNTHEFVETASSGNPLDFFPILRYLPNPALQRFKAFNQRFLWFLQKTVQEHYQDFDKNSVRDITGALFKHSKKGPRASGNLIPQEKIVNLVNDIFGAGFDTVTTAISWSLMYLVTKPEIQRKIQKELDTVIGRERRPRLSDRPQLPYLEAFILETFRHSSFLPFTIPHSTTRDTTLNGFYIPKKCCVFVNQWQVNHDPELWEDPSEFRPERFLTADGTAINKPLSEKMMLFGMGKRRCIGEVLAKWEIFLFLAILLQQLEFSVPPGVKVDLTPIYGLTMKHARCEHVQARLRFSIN", "method": "as §1"}, "CYP2C9": {"target": "T3, CYP2C9 (Homo sapiens, UniProt P11712)", "T3 construct": "from tissue; host or cells: human liver microsomes (pooled in the time-dependent assay)", "T3 sequence (P11712 whole entry)": "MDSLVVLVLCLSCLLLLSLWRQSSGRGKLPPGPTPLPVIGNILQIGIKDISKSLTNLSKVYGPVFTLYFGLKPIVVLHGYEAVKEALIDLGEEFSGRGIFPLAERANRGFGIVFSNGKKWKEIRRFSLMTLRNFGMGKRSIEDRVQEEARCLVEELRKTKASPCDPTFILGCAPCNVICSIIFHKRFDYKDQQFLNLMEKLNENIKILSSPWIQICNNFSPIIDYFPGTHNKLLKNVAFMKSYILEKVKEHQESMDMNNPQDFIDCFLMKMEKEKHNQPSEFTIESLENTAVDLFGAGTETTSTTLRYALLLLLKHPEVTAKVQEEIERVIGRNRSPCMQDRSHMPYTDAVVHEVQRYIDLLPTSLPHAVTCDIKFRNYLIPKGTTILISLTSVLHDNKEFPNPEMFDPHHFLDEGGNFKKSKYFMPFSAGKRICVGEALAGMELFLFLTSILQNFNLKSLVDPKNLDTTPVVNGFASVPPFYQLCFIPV", "method": "as §1"}, "CYP2C8": {"target": "T4, CYP2C8 (Homo sapiens, UniProt P10632)", "T4 construct": "Pooled human microsomes and selective CYP probe substrates were used; from tissue; host or cells: pooled human (hepatic) microsomes", "T4 sequence (P10632 1-490)": "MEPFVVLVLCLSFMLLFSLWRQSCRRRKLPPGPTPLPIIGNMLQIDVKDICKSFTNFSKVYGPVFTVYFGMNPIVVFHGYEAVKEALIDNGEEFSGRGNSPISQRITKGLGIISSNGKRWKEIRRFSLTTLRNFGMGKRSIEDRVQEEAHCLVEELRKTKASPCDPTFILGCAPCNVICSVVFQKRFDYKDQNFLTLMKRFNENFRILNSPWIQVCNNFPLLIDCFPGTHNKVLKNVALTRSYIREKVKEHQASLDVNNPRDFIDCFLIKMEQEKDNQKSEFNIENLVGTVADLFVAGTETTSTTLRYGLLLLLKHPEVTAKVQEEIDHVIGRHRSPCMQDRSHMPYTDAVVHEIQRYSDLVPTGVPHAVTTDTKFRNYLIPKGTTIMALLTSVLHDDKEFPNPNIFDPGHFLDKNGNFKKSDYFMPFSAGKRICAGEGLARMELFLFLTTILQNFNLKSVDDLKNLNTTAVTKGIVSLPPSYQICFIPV", "method": "as §1"}, "CYP2B6": {"target": "T5, CYP2B6 (Homo sapiens, UniProt P20813)", "T5 construct": "from tissue; host or cells: human liver microsomes (pooled in the time-dependent assay)", "T5 sequence (P20813 1-491)": "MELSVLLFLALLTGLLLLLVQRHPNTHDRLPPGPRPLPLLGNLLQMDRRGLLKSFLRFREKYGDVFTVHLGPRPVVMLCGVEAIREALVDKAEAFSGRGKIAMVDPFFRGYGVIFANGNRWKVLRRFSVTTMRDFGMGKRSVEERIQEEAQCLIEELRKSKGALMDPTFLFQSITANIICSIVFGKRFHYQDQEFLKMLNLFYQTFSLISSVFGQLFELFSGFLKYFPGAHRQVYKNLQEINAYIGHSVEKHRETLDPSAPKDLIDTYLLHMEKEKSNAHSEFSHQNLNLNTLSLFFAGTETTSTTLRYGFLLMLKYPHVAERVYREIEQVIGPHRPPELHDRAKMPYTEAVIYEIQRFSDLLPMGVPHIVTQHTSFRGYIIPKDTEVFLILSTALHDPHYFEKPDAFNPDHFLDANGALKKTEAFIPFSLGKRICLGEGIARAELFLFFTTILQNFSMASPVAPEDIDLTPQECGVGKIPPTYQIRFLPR", "method": "as §1"}, "[1]": {"conditions": "between 30 min pre-incubation plus NADPH and 0 min"}, "[2]": {"conditions": "pre-incubation 30 min (NO NADPH)"}}, "note": "Like-named read-outs stand apart in the source and are kept apart here."}
{"molecule": "CO[C@H]1CC[C@H](NC(=O)c2nccc(-c3cncn3C)n2)CC1", "note": "[Compound 148, N-((1r,4r)-4-methoxycyclohexyl)-4-(1-methyl-1H-imidazol-5-yl)pyrimidine-2-carboxamide]", "values": [{"measurement": "CYP3A4-M IC50 fold shift", "setting": "CYP3A4; [1]", "result": "none"}, {"measurement": "CYP3A4-T IC50 fold shift", "setting": "CYP3A4; [1]", "result": "none"}, {"measurement": "IC50", "setting": "CYP3A4; pre-incubation 0 min, read-out: CYP3A4-M IC50", "result": "> 30", "unit": "µM"}, {"measurement": "IC50", "setting": "CYP3A4; pre-incubation 0 min, read-out: CYP3A4-T IC50", "result": "> 30", "unit": "µM"}, {"measurement": "IC50", "setting": "CYP3A4; pre-incubation 30 min (NADPH), read-out: CYP3A4-M IC50", "result": "> 30", "unit": "µM"}, {"measurement": "IC50", "setting": "CYP3A4; pre-incubation 30 min (NADPH), read-out: CYP3A4-T IC50", "result": "> 30", "unit": "µM"}, {"measurement": "IC50", "setting": "CYP3A4; pre-incubation 30 min (NO NADPH), read-out: CYP3A4-M IC50", "result": "> 30", "unit": "µM"}, {"measurement": "IC50", "setting": "CYP3A4; pre-incubation 30 min (NO NADPH), read-out: CYP3A4-T IC50", "result": "> 30", "unit": "µM"}, {"measurement": "IC50", "setting": "CYP1A2; 0 min pre-incubation, pooled human microsomes, read-out: IC50 CYP1A2 (reversible inhibition)", "result": 10, "unit": "µM"}, {"measurement": "CYP1A2 IC50 fold shift", "setting": "CYP1A2; [1]", "result": 0.8}, {"measurement": "IC50", "setting": "CYP1A2; pre-incubation 30 min (NADPH), read-out: CYP1A2 IC50", "result": 11.8, "unit": "µM"}, {"measurement": "IC50", "setting": "CYP1A2; pre-incubation 30 min (NO NADPH), read-out: CYP1A2 IC50", "result": 12, "unit": "µM"}, {"measurement": "CYP2C9 IC50 fold shift", "setting": "CYP2C9; [1]", "result": "none"}, {"measurement": "IC50", "setting": "CYP2C9; pre-incubation 0 min", "result": "> 30", "unit": "µM"}, {"measurement": "IC50", "setting": "CYP2C9; pre-incubation 30 min (NADPH)", "result": "> 30", "unit": "µM"}, {"measurement": "IC50", "setting": "CYP2C9; [2]", "result": "> 30", "unit": "µM"}, {"measurement": "CYP2C8 IC50 fold shift", "setting": "CYP2C8; [1]", "result": "none"}, {"measurement": "IC50", "setting": "CYP2C8; pre-incubation 0 min", "result": "> 30", "unit": "µM"}, {"measurement": "IC50", "setting": "CYP2C8; pre-incubation 30 min (NADPH)", "result": "> 30", "unit": "µM"}, {"measurement": "IC50", "setting": "CYP2C8; [2]", "result": "> 30", "unit": "µM"}, {"measurement": "IC50", "setting": "CYP2B6; 0 min pre-incubation, pooled human microsomes, read-out: IC50 CYP2B6 (reversible inhibition)", "result": 26.2, "unit": "µM"}, {"measurement": "CYP2B6 IC50 fold shift", "setting": "CYP2B6; [1]", "result": "none"}, {"measurement": "IC50", "setting": "CYP2B6; pre-incubation 30 min (NADPH), read-out: CYP2B6 IC50", "result": "> 30", "unit": "µM"}, {"measurement": "IC50", "setting": "CYP2B6; pre-incubation 30 min (NO NADPH), read-out: CYP2B6 IC50", "result": 24.4, "unit": "µM"}]}
